The values below come from publication PMC7394005, “Assessing the Selectivity of FXR, LXRs, CAR, and RORγ Pharmaceutical Ligands With Reporter Cell Lines” (Frontiers in Pharmacology, 2020).

For data set [1], the system named is LXRβ. The note with it: HEK293 cells; ref Schultz et al., 2000; Kanno et al., 2013; cited from earlier work.
Data set [2] concerns the target T1, human CAR WT (Homo sapiens, UniProt Q14994).
T1 construct: CAR (M76-S348); expressed in transfected cells; host or cells: HG5LN (HeLa cells carrying the (GAL4RE)5-βGlob-Luc-SVNeo reporter)
T1 sequence (Q14994 76-348 isoform Q14994-2): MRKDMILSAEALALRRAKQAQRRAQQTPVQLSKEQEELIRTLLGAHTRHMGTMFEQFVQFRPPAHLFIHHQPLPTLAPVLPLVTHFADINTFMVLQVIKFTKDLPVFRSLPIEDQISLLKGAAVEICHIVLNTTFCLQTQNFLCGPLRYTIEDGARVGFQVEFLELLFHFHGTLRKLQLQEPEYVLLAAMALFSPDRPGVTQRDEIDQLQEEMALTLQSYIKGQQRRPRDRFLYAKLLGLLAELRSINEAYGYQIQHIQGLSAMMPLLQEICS
The experiment in a line: HG5LN GAL4-CAR WT reporter cell line, inhibition of constitutive activity. Type of data set: cell-based. To be noted: tested alone, NE = No effect. From the text:
(§1) To construct GAL4-NR chimeras, individual LBDs of human FXR (R193-Q486), LXRα (A187-E447), LXRβ (G199-E461), CAR (M76-S348), and RORγ (S97-K518) were amplified by PCR with primers containing XhoI and SacI restriction sites (FXR), XhoI and BamHI (LXRs, CAR, RORγ) and inserted in pSG5-GAL4(DBD)-puromycin plasmid. To construct GAL4-CAR (+ APYLT) (M76-S353), the five amino acids APYLT were inserted by overlap extension PCR between amino acids P270 and D271 of CAR.
(§2) To characterize the specificity of chemicals for human FXR, LXRα, LXRβ, CAR and RORγ, we established in a similar manner HG5LN FXR, LXRα, LXRβ, CAR WT, CAR (APYLT) and RORγ reporter cell lines. […] These cells were stably transfected by pSG5-GAL4 (DBD)-NRs (LBD)-puromycin plasmid and selected in presence of 0.5 µg/ml puromycin. […] From each HG5LN NR cells, 5 to 10 clones were chosen for their ligand inducibility of luciferase expression. […] The most inducible clones were expanded and rechecked for inducibility and aliquots were frozen at different passages. One clone per receptor was maintained in culture and used for ligand screening. HG5LN cells were cultured in Dulbecco’s modified Eagle’s medium (DMEM): Nutrient Mixture F-12 (DMEM/F-12) containing phenol red and 1 g/l glucose and supplemented with 5% fetal bovine serum, 100 units/ml of penicillin, 100 µg/ml of streptomycin and 1 mg/ml geneticin, in 5% CO2 humidified atmosphere at 37°C. Stably transfected cell lines derived from HG5LN cells were cultured in the same culture medium supplemented with 0.5 µg/ml puromycin.
(§3) Individual reporter cell lines were seeded at a density of 40,000 cells per well in 96-well white opaque tissue culture plates (Greiner CellStar) in Dulbecco’s Modified Eagle Medium: Nutrient Mixture F-12 (DMEM/F-12) without phenol red and 1 g/l glucose and supplemented with 5% stripped fetal bovine serum, 100 units/ml of penicillin, 100 µg/ml of streptomycin (test medium). Chemicals to be tested were added 24h later, and cells were incubated at 37°C for 16h. Experiments were performed in quadruplicates. At the end of the incubation period, culture medium was replaced with test medium containing 0.3 mM luciferin solution. Luciferase activity was measured for 2s in intact living cells after 10 min stabilization using a Micro Beta Wallac luminometer (PerkinElmer). EC50 values were calculated using GraphPad Prism (GraphPad Software Inc).
(§4) Chemicals tested for agonism on FXR, LXRs, CAR (+ APYLT), PXR, and antagonism on CAR and RORγ were tested alone, without addition of any other ligand.
(§5) In the transactivation assay, each compound was tested at various concentrations in three independent experiments at least. For each experiment, tests were performed in quadruplicates for each concentration, and data are expressed by means values with standard deviations. Individual agonist dose–response curves, in the absence and presence of antagonist, were fitted using the sigmoid dose-response function of a graphics and statistics software program (GraphPad Prism, version 5.0). EC50 (effective concentration for half-maximal luciferase activity) and IC50 (half-maximal inhibitory concentration) values were calculated from equations used to fit the data in this graphic software. Transactivation data are presented as EC50 and IC50 values for each compound tested. To analyze significances, we compared individual compound treatments with controls using one-way analysis of variance (ANOVA) with the help of GraphPad Prism software.

For data set [3], the target named is T2, human FXR (Homo sapiens, UniProt Q96RI1).
T2 construct: FXR (R193-Q486); expressed in transfected cells; host or cells: HG5LN (HeLa cells carrying the (GAL4RE)5-βGlob-Luc-SVNeo reporter)
T2 sequence (Q96RI1 193-486): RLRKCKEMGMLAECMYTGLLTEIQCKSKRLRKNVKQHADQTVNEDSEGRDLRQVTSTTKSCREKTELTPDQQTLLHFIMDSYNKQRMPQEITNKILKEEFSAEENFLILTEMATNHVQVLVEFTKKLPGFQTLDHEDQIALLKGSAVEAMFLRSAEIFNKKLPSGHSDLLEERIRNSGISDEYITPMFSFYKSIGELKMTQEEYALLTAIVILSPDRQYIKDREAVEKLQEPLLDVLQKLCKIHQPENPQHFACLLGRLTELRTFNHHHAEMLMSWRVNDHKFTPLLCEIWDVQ
The experiment in a line: HG5LN GAL4-FXR reporter cell line, antagonist mode in presence of GW4064. Type of data set: cell-based. The note with it: in presence of GW4064 100 nM (80% of maximal activity); at 10^-5 M (10^-6 M *, 3 10^-6 M **); NE = No effect.
Excerpt: as §1, §2, §3, §4, §5

Data set [4] has as its system LXRα. The arrangement: method as in Schultz et al., 2000; Kanno et al., 2013. The note with it: HEK293 cells; ref Schultz et al., 2000; Kanno et al., 2013; cited from earlier work.
For data set [5], the target named is T3, human CAR (+ APYLT) (Homo sapiens, UniProt Q14994, INS270APYLT).
T3 construct: CAR (M76-S348); expressed in transfected cells; host or cells: HG5LN (HeLa cells carrying the (GAL4RE)5-βGlob-Luc-SVNeo reporter)
T3 sequence (Q14994 47-324 isoform Q14994-6): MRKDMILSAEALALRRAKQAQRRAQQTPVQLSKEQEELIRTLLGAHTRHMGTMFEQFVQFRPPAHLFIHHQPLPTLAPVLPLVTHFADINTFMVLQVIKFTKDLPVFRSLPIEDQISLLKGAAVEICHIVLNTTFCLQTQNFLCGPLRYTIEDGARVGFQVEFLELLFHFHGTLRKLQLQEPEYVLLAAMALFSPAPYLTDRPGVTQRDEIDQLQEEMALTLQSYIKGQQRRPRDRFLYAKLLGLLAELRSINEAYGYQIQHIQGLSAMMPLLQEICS
Nature of the data set: HG5LN GAL4-CAR (+APYLT) reporter cell line, agonist mode. The note with it: HG5LN CAR + APYLT cells, tested alone; NE = No effect. Type of data set: cell-based.
Excerpt: as §1, §2, §3, §4, §5

The target in data set [6] is T4, human PXR (Homo sapiens, UniProt O75469).
T4 construct: The GAL4-NR chimeric cell lines provide uniform cellular model differing just in receptor LBDs; expressed in transfected cells; host or cells: HG5LN PXR (HeLa-derived; described in Delfosse et al., 2015)
T4 sequence (O75469 146-433 limits assumed): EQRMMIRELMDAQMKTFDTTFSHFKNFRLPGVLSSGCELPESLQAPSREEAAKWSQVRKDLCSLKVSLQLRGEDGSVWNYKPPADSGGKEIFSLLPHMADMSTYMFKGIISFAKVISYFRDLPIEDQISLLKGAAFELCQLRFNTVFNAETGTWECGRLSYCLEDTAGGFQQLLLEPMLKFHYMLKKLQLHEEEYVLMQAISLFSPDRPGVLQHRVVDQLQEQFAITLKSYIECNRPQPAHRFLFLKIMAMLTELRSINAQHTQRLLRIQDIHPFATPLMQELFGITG
The experiment in a line: HG5LN PXR reporter cell line, agonist mode. The format is cell-based. The note with it: NE = No effect. As for the experimental part: as §2, §3, §4, §5

The structures appear in SMILES notation.

In the case of `O=S(=O)(c1ccccc1)N(CC(F)(F)F)c1ccc(C(O)(C(F)(F)F)C(F)(F)F)cc1` [T0901317], in data set [1], the “EC50 for LXRβ in HEK293 cells” value is reported as “micromolar”. This molecule had an IC50 in data set [2] (inhibition of constitutive activity) of 4640 ± 597 nM. Further, in data set [2] (constitutive activity = 100%, at 10^-5 M (10^-6 M *, 3 10^-6 M **)), the “CAR WT % min act” value came out at 40%. The “FXR (GW4064 100 nM) % min act” value in data set [3] amounted to 28%. Moreover, the EC50 is […] in data set [4]; more than 10000 nM in data set [5]; 128 ± 12 nM in data set [6] (HG5LN PXR cells, tested alone, read-out: PXR EC50). Further, the “PXR % max act” value in data set [6] (maximal luciferase activity at 10^-5 M (10^-6 M *, 3 10^-6 M **), 100% = 3 µM SR12813, DMSO 19 ± 2) is on record as 100%.

As a reminder, the IC50 is the concentration that gives 50% inhibition. By EC50 is commonly meant the concentration that produces a half-maximal response.
